Test results: BindingDB's records for PubMed 33422907 (Universita Paul Sabatier, 2021)

Biological target: Signal transducer and activator of transcription 3 (Homo sapiens, UniProt P40763)
Assay: Inhibition of STAT3 in human Hep3B cells assessed as inhibition of IL-6 stimulated STAT3 expression by luciferase reporter assay

Sequence of Signal transducer and activator of transcription 3 (P40763 whole entry): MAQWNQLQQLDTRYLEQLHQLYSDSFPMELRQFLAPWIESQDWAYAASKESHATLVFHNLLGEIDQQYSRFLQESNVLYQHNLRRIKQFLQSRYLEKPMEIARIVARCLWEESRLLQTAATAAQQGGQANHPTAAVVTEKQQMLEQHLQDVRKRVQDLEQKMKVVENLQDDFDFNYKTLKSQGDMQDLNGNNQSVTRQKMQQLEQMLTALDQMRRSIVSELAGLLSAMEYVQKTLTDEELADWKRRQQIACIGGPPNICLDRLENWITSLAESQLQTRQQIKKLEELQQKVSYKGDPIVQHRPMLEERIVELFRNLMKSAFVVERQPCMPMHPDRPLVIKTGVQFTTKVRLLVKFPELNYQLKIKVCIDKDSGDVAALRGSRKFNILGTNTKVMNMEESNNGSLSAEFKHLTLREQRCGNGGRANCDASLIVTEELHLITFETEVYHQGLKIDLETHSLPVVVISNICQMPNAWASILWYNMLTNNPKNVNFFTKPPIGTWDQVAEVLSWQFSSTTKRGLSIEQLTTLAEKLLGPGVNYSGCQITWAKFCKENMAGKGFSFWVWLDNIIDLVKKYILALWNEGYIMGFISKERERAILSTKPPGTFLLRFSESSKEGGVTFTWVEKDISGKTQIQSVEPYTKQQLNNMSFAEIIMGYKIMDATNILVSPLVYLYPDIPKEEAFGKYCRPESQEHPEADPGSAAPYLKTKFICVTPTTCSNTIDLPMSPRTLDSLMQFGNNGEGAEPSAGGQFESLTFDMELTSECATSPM

Compound | IC50
COc1ccc(/C=C/C=C/C(=O)/C=C/c2ccc(O)cc2)cc1 | 4.1 µM
O=[N+]([O-])c1ccc2c(c1)S(=O)(=O)C=C2 | 0.67 µM
COc1ccc(/C=C/[C@@H](C[C@@H](O)CCc2ccc(OC)c(OC)c2)OC)cc1OC | 12.9 µM
COc1ccc(/C=C/C(C[C@H](O)CCc2ccc(OC)c(OC)c2)OC)cc1OC (stereo partly drawn) | 11.1 µM
COc1ccc(/C=C/[C@H](O)C[C@@H](O)CCc2ccc(OC)c(OC)c2)cc1OC | 19.9 µM

Continued by falling IC50, values first:

IC50 | Compound
50 µM | COc1ccc(CC[C@@H](O)C[C@H](O)CCc2ccc(OC)c(OC)c2)cc1OC
37.6 µM | COc1ccc(CC[C@H](O)C[C@@H](O)/C=C/c2cc(OC)c(OC)c(OC)c2)cc1OC
21.5 µM | COc1cc(/C=C/C(=O)CC(=O)CC(O)c2ccc(O)c(OC)c2)ccc1O (stereo not drawn)
